From ChEMBL document CHEMBL4665694, “Integrating the Impact of Lipophilicity on Potency and Pharmacokinetic Parameters Enables the Use of Diverse Chemical Space during Small Molecule Drug Optimization” (J Med Chem, 2020)

Legend:
Format in all cases: ADME
[1] = Clearance in human
[2] = Unbound clearance in human
[3] = Volume of distribution at steady state in human; settings: read-out: Vdss
[4] = Unbound volume of distribution at steady state in human
[5] = AUC in human administered as single dose
[6] = Unbound AUC in human administered as single dose
[7] = Fraction unbound in human
[8] = Half life in human
[9] = AUC at steady state in human administered as single dose
[10] = Unbound AUC at steady state in human administered as single dose

## OC(Cn1cncn1)(Cn1cncn1)c1ccc(F)cc1F [FLUCONAZOLE]
[1]
  clearance: 0.9 mL/min/kg
[2]
  CL free: 1 mL/min/kg
[3]
  Vd: 0.9 L/kg
[4]
  fVdss: 1 L/kg
[5]
  AUC: 100000 ng·h/mL
[6]
  fAUC: 90000 ng·h/mL
[7]
  fraction unbound: 0.9
[8]
  half-life: 32 h

## CCC(C)n1ncn(-c2ccc(N3CCN(c4ccc(OCC5COC(Cn6cncn6)(c6ccc(Cl)cc6Cl)O5)cc4)CC3)cc2)c1=O (stereo unspecified) [ITRACONAZOLE]
[1]
  clearance: 5.4 mL/min/kg
[2]
  CL free: > 2700 mL/min/kg
[3]
  Vd: 11 L/kg
[4]
  fVdss: > 5000 L/kg
[7]
  fraction unbound: ≤ 0.002
[8]
  half-life: 23 h
[9]
  AUC: 23000 ng·h/mL
[10]
  fAUC: 50 ng·h/mL
